A word on the MIC: it is the smallest concentration in the dilution series that meets the test's criterion for growth inhibition.

In assay [1] the test system is Salmonella typhimurium TA100. Nature of the assay: MIC determination (broth microdilution). Format: cell-based. Conditions: Salmonella enterica, read-out: MIC S. typh. The method, boiled down:
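Broth microdilution per CLSI M07-A9 in cation-adjusted Mueller-Hinton II broth, inoculum about 1x10^6 CFU mL-1, compounds 128 to 0.016 μg/mL (DMSO-dissolved; ciprofloxacin in 0.1 N HCl). Incubated 16 h at 30−37°C; MIC read by eye as growth inhibition.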
(In general: Broth dilution looks for growth in wells or tubes with falling amounts of substance.)

For the next assay, the system named is E. coli DSM 1116. Kind of assay: Qualitative growth inhibition assay in presence of AlbAS. Conditions: for GIA: E. coli inhibition +AlbA: E. coli DSM 1116, 10 µM compound with equimolar AlbAS; for bioactivity in presence of AlbAS (in words): E. coli, equimolar purified AlbAS. Format: cell-based, Escherichia coli. On the procedure: Finally, we investigated if synthetic variations of building block A are able to evade the effects of the resistance protein AlbA. Therefore, we carried out a qualitative growth inhibition assay with derivatives 4–24 in presence of an equimolar amount of purified AlbAS. After incubation of the cultures overnight, the growth of the bacteria was evaluated. The ability of AlbAS to sufficiently sequester an albicidin derivative from the supernatant allowed E. coli cells to accumulate in a visible cell pellet. Second, we performed a quantitative transcription‐activation reporter assay[22] to assess transcriptional regulation by AlbAL. The promoter sequence pAlbA was inserted into a reporter vector that encodes the ilux luminescence cassette.[22] The luminescence signals elicited by ligand binding of synthetic variations to AlbAL was compared and normalized to the signal induced by 2nd Gen albicidin 2 and are hereby referred to as relative transcription activation (TA^%). The combination of both assays prompted us to categorize the experimental outcomes (Figure 4) in four groups:
Figure 4 Characterization of AlbA resistance against derivatives 2, 4–24. GIA: Qualitative growth inhibition assay against E. coli DSM 1116. (−): Derivative unable to inhibit the growth of E. coli in presence of AlbAS. (+): Derivative inhibits growth of E. coli in presence of AlbAS. […] For details see SI Figure 9. Transcription activation (TA) assay: luminescence elicited by 2nd Gen albicidin 2 from the TA assay was normalized to 100 % and the luminescence signal of tested derivatives provided: relative luminescence [%]=luminescence [derivative]/luminescence [2]×100 %. Green bars indicate low relative luminescence (<40 %) and red bars indicate high relative luminescence (>50 %). Error bars show the standard deviations of triplicate measurements. TEXT PRINTED IN THE PICTURE: 2: E. coli inhibition +AlbA: − | 4: E. coli inhibition +AlbA: + | 9: E. coli inhibition +AlbA: + | 11: E. coli inhibition +AlbA: + | 12: E. coli inhibition +AlbA: + | 13: E. coli inhibition +AlbA: ~ | 14: E. coli inhibition +AlbA: − | 16: E. coli inhibition +AlbA: − | 17: E. coli inhibition +AlbA: − | 18: E. coli inhibition +AlbA: − | 19: E. coli inhibition +AlbA: − | 20: E. coli inhibition +AlbA: + | 21: E. coli inhibition +AlbA: − | 22: E. coli inhibition +AlbA: − | 23: E. coli inhibition +AlbA: − | 24: E. coli inhibition +AlbA: − […]
1.3 Resistance assessment against AlbA
E. coli strain DSM 1116 was used for all susceptibility testing. E. coli BL21 Star (DE3) cells (Invitrogen) were used for protein expression. LB medium (Lysogeny broth: 10 g/L peptone, 5 g/L yeast extract, 5 g/L NaCl) was used as broth or in agar plates for all experiments. Incubation steps took place at 37°C and 180 rpm shaking if not stated otherwise. Throughout the study, 2nd Gen albicidin 2 was used as albicidin standard due to its better stability, availability and similar activity compared to natural albicidin in presence of resistance factors.[3,4]
AlbA expression and purification
N-terminally His-tagged AlbA was expressed using a pET28a vector as described previously.[5] In brief, E. coli BL21(DE3) cells were transformed with pET28-AlbA plasmid and grown in LB medium with kanamycin. LB broth supplemented with 50 µg/mL kanamycin was inoculated from over-night cultures and grown at 37°C until an OD600 of 0.6 was reached. After induction with 0.2 mM isopropyl β-D-1-thiogalactopyranoside (IPTG) the proteins were expressed at 18°C for 20 h. The cells were harvested by centrifugation (4,000 x G, 20 min), resuspended in lysis buffer (50 mM Tris, pH 8.0, 500 mM NaCl, 10% glycerol) and processed in a cell disruptor (Constant Systems Ltd) at 25 kPsi before centrifugation at 50,000 x G, at 4°C for 45 min. The lysate was incubated with Pure Cube Ni-NTA agarose (Cube Biotech, Germany) at 4°C for 20 min while shaking. The slurry was transferred to empty gravity-flow […]

In brackets after ≈: the same amount, converted by molar mass. Some results are limits rather than exact numbers.

Regarding `COc1c(NC(=O)c2ccc(NC(=O)c3ccc(NC(=O)[C@H](Cc4c[nH]nn4)NC(=O)c4ccc(NC(=O)c5ccc(C#N)cc5)cc4)cn3)c(OC)c2O)ccc(C(=O)O)c1O` [compound 4], in assay [1], the MIC was no more than 0.016 µg/mL. In the assay on E. coli DSM 1116, the “GIA: E. coli inhibition +AlbA” value was “+” and the “bioactivity in presence of AlbAS (in words)” value (shortened to “bioactivity in presence”) is given as “has bioactivity”.
On to `COc1c(NC(=O)c2ccc(NC(=O)c3ccc(NC(=O)[C@H](Cc4c[nH]nn4)NC(=O)c4ccc(NC(=O)[C@@H](C)Oc5ccc(O)cc5)cc4)cn3)c(OC)c2O)ccc(C(=O)O)c1O` [compound 9], for which, in assay [1], the MIC was found to be 0.063 µg/mL (≈ 0.0708 µM). In addition, in the assay with E. coli DSM 1116, the “GIA: E. coli inhibition +AlbA” value was “+” and the “bioactivity in presence” value is on record as “has bioactivity”.
For the compound `COc1c(NC(=O)c2ccc(NC(=O)c3ccc(NC(=O)[C@H](Cc4c[nH]nn4)NC(=O)c4ccc(NC(=O)c5ccc6ccccc6n5)cc4)cn3)c(OC)c2O)ccc(C(=O)O)c1O` [compound 11], in assay [1], the MIC is no more than 0.016 µg/mL. Further, in the assay on E. coli DSM 1116, the “GIA: E. coli inhibition +AlbA” value was “+” and the “bioactivity in presence” value is on record as “highly bioactive”.
In the same order, the values of `COc1c(NC(=O)c2ccc(NC(=O)c3ccc(NC(=O)[C@H](Cc4c[nH]nn4)NC(=O)c4ccc(NC(=O)c5cc6ccccc6cn5)cc4)cn3)c(OC)c2O)ccc(C(=O)O)c1O` [compound 12] are no more than 0.016 µg/mL, “+” and “highly bioactive”.
Regarding `COc1c(NC(=O)c2ccc(NC(=O)c3ccc(NC(=O)[C@H](Cc4c[nH]nn4)NC(=O)c4ccc(NC(=O)c5cnc6ccccc6c5)cc4)cn3)c(OC)c2O)ccc(C(=O)O)c1O` [compound 13], in the assay on E. coli DSM 1116, the “bioactivity in presence” value is “has bioactivity”.
For `COc1c(NC(=O)c2ccc(NC(=O)c3ccc(NC(=O)[C@H](Cc4c[nH]nn4)NC(=O)c4ccc(NC(=O)c5ccc6ncccc6c5)cc4)cn3)c(OC)c2O)ccc(C(=O)O)c1O` [compound 14], the MIC in assay [1] is no more than 0.016 µg/mL. In the assay on E. coli DSM 1116, the “GIA: E. coli inhibition +AlbA” value was “−” and the “bioactivity in presence” value is recorded as “deactivated”.
Take `COc1c(NC(=O)c2ccc(NC(=O)c3ccc(NC(=O)[C@H](Cc4c[nH]nn4)NC(=O)c4ccc(NC(=O)c5ccc6nc(C)ccc6c5)cc4)cn3)c(OC)c2O)ccc(C(=O)O)c1O` [compound 16]: in the assay on E. coli DSM 1116, the “GIA: E. coli inhibition +AlbA” value is listed as “−” and the “bioactivity in presence” value was “deactivated”.
For `COc1c(NC(=O)c2ccc(NC(=O)c3ccc(NC(=O)[C@H](Cc4c[nH]nn4)NC(=O)c4ccc(NC(=O)c5c[nH]c6ccccc6c5=O)cc4)cn3)c(OC)c2O)ccc(C(=O)O)c1O` [compound 17], in that order: “−” and “deactivated”.
In the case of `CCn1cc(C(=O)Nc2ccc(C(=O)N[C@@H](Cc3c[nH]nn3)C(=O)Nc3ccc(C(=O)Nc4ccc(C(=O)Nc5ccc(C(=O)O)c(O)c5OC)c(O)c4OC)nc3)cc2)c(=O)c2ccc(C)nc21` [compound 18], the MIC in assay [1] is no more than 0.016 µg/mL. Besides, in the assay on E. coli DSM 1116, the “GIA: E. coli inhibition +AlbA” value is “−” and the “bioactivity in presence” value is reported as “deactivated”.
`CCn1cc(C(=O)Nc2ccc(C(=O)N[C@@H](Cc3c[nH]nn3)C(=O)Nc3ccc(C(=O)Nc4ccc(C(=O)Nc5ccc(C(=O)O)c(O)c5OC)c(O)c4OC)nc3)cc2)c(=O)c2cc3c(cc21)OCO3` [compound 19]: in the assay with E. coli DSM 1116, the “GIA: E. coli inhibition +AlbA” value is “−” and the “bioactivity in presence” value is recorded as “deactivated”.
Take `COc1c(NC(=O)c2ccc(NC(=O)c3ccc(NC(=O)[C@H](Cc4c[nH]nn4)NC(=O)c4ccc(NC(=O)c5cc(=O)c6cc(F)ccc6o5)cc4)cn3)c(OC)c2O)ccc(C(=O)O)c1O` [compound 20]: the MIC in assay [1] is no more than 0.016 µg/mL. For the same compound, in the assay with E. coli DSM 1116, the “GIA: E. coli inhibition +AlbA” value is “+” and the “bioactivity in presence” value is reported as “highly bioactive”.
Take `COc1c(NC(=O)c2ccc(NC(=O)c3ccc(NC(=O)[C@H](Cc4c[nH]nn4)NC(=O)c4ccc(NC(=O)c5cc6cc(O)ccc6[nH]5)cc4)cn3)c(OC)c2O)ccc(C(=O)O)c1O` [compound 21]: in assay [1], the MIC came out at 0.125 µg/mL (≈ 0.141 µM). In the assay with E. coli DSM 1116, the “GIA: E. coli inhibition +AlbA” value is “−” and the “bioactivity in presence” value is reported as “deactivated”.
With `COc1c(NC(=O)c2ccc(NC(=O)c3ccc(NC(=O)[C@H](Cc4c[nH]nn4)NC(=O)c4ccc(NC(=O)c5ccc6ncsc6c5)cc4)cn3)c(OC)c2O)ccc(C(=O)O)c1O` [compound 22], in assay [1], the MIC was no more than 0.016 µg/mL. For the same compound, in the assay with E. coli DSM 1116, the “GIA: E. coli inhibition +AlbA” value is given as “−” and the “bioactivity in presence” value is listed as “deactivated”.
Consider `COc1c(NC(=O)c2ccc(NC(=O)c3ccc(NC(=O)[C@H](Cc4c[nH]nn4)NC(=O)c4ccc(NC(=O)c5ccc6nc[nH]c6c5)cc4)cn3)c(OC)c2O)ccc(C(=O)O)c1O` [compound 23], for which, in assay [1], the MIC came out at 0.125 µg/mL (≈ 0.144 µM). In the assay with E. coli DSM 1116, the “GIA: E. coli inhibition +AlbA” value was “−” and the “bioactivity in presence” value was “deactivated”.
On to `COc1c(NC(=O)c2ccc(NC(=O)c3ccc(NC(=O)[C@H](Cc4c[nH]nn4)NC(=O)c4ccc(NC(=O)c5ccc6nn[nH]c6c5)cc4)cn3)c(OC)c2O)ccc(C(=O)O)c1O` [compound 24], for which the MIC in assay [1] was 0.031 µg/mL (≈ 0.0356 µM). Moreover, in the assay with E. coli DSM 1116, the “GIA: E. coli inhibition +AlbA” value is “−” and the “bioactivity in presence” value is recorded as “deactivated”.

The record behind these values is article PMC11979685, “Synthesis of Derivatives of the Antibiotic Albicidin: The N‐Terminal Fragment as Key to Control Potency and Resistance Mediated by the Binding Protein AlbA” (Chemistry (Weinheim an Der Bergstrasse, Germany), 2025).
